Measured values: ChEMBL document CHEMBL3124754, “Delivery of a lactose derivative of endomorphin 1 to the brain via the olfactory epithelial pathway” (Bioorg Med Chem Lett, 2014)

Legend:
[1] = Half life in human plasma by RP-HPLC analysis; assay type: ADME, cell-free
[2] = tested on: Brain; assay: Drug uptake in rat brain homogenate at 6.5 uM after 30 mins by LC-MS/MS analysis; assay type: ADME, tissue-based; conditions: in vivo, 0.5 h
[3] = Drug uptake in Sprague-Dawley rat olfactory bulb at 2 mg/kg administered via nasal cavity after 10 mins; assay type: ADME, organism-based; parameters: dose 2 mg/kg; conditions: inhaled or intranasal, read-out: Drug uptake
[4] = Drug uptake in Sprague-Dawley rat brain at 2 mg/kg administered via nasal cavity after 10 mins; assay type: ADME, organism-based; parameters: dose 2 mg/kg; conditions: inhaled or intranasal, read-out: Drug uptake
[5] = tested on: Brain; assay: Drug uptake in rat brain homogenate at 18.2 uM after 30 mins by LC-MS/MS analysis; assay type: ADME, tissue-based; conditions: in vivo, 0.5 h
[6] = Drug uptake in Sprague-Dawley rat blood at 2 mg/kg administered via nasal cavity after 10 mins; assay type: ADME, organism-based; parameters: dose 2 mg/kg; conditions: inhaled or intranasal, read-out: Drug uptake
[7] = tested on: Plasma; assay: Drug degradation in human plasma assessed as N-lactose endomorphin1 formation after 2 mins by RP-HPLC analysis; assay type: ADME, cell-free

Row | Stability [7] | SMILES | half-life [1] | Drug uptake [2] | concentration at 10 min [3] | concentration at 10 min [4] | Drug uptake [5] | concentration at 10 min [6]
1 | – | NC(=O)[C@H](Cc1ccccc1)NC(=O)[C@H](Cc1c[nH]c2ccccc12)NC(=O)[C@@H]1CCCN1C(=O)[C@H](Cc1ccc(O)cc1)NC(=O)CCC(=O)N[C@@H]1O[C@H](CO)[C@@H](O[C@@H]2O[C@H](CO)[C@H](O)[C@H](O)[C@H]2O)[C@H](O)[C@H]1O | 12.9 min | 3.4 µM | 514 nM | 4 nM | 18.12 µM | 1.6 nM
2 | Unstable | CC(=O)OC[C@H]1O[C@@H](O[C@H]2[C@H](OC(C)=O)[C@@H](OC(C)=O)[C@H](NC(=O)CCC(=O)N[C@@H](Cc3ccc(O)cc3)C(=O)N3CCC[C@H]3C(=O)N[C@@H](Cc3c[nH]c4ccccc34)C(=O)N[C@@H](Cc3ccccc3)C(N)=O)O[C@@H]2COC(C)=O)[C@H](OC(C)=O)[C@@H](OC(C)=O)[C@H]1OC(C)=O | – | – | – | – | – | –
3 | – | NC(=O)[C@H](Cc1ccccc1)NC(=O)[C@H](Cc1c[nH]c2ccccc12)NC(=O)[C@@H]1CCCN1C(=O)[C@@H](N)Cc1ccc(O)cc1 [ENDOMORPHIN-1] | 5.9 min | – | – | – | – | –
